Data: patent publication US20260226068A1, “IMIDAZOTRIAZINE IL-17A MODULATORS AND USES THEREOF” (DICE ALPHA, INC., priority 2023, published 2026)

Experiments:
[1] = biological target: T1, IL-17A/A (Homo sapiens, UniProt Q16552); assay: IL-17A/A HEK-Blue cell assay (SEAP reporter); type: cell-based; details: HEK-Blue IL-17A reporter cells, IL17A/A 5 ng/mL, 20 hours, SEAP read at A630; read-out: HEK-Blue IL17AA (IC50 for IL-17A/A inhibition)
T1 construct: purchased Genscript Z03228
T1 sequence (Q16552 24-155): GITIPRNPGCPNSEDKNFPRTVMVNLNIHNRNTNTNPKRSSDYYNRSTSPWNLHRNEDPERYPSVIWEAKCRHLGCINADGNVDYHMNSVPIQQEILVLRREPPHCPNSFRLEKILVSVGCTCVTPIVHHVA

[2] = biological target: T2, IL-17A/F (Homo sapiens, UniProt Q16552+Q96PD4); assay: IL-17A/F HEK-Blue cell assay (SEAP reporter); type: cell-based; details: HEK-Blue IL-17A reporter cells, IL17A/F 5 ng/mL, 20 hours, SEAP read at A630; read-out: HEK-Blue IL17AF (IC50 for IL-17A/F inhibition)
T2 construct: purchased R&D Systems
T2 sequence (Q16552 24-155): T1 sequence (Q16552 24-155)
T2 sequence (Q96PD4 31-163): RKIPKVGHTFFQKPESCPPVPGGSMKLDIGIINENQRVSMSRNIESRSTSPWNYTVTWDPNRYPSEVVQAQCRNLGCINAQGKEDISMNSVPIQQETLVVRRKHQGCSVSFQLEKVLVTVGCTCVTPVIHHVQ

SMILES	IC50 [1] [µM]	IC50 [2] [µM]
CC(C)n1nccc1C(=O)N[C@H](c1cn2nc(CC3C[C@H](C(F)(F)F)CNC3=O)cnc2n1)C1CCC(F)(F)CC1 (stereo partly drawn) [Compound 15, N—((S)-(4,4-difluorocyclohexyl)(2-(((5S)-2-oxo-5-(trifluoromethyl)piperidin-3-yl)methyl)imidazo[1,2-b][1,2,4]triazin-6-yl)methyl)-1-isopropyl-1H-pyrazole-5-carboxamide]	0.1 to 1	> 1
O=C(N[C@H](c1cn2nc(CC3C[C@H](C(F)(F)F)CNC3=O)cnc2n1)C1CCC(F)(F)CC1)c1nonc1C1CC1 (stereo partly drawn) [Compound 16, 4-cyclopropyl-N—((S)-(4,4-difluorocyclohexyl)(2-(((5S)-2-oxo-5-(trifluoromethyl)piperidin-3-yl)methyl)imidazo[1,2-b][1,2,4]triazin-6-yl)methyl)-1,2,5-oxadiazole-3-carboxamide]	0.1 to 1	> 1
CCn1nccc1C(=O)N[C@H](c1cn2nc(CC3C[C@@H](C(F)(F)F)CNC3=O)cnc2n1)C1CCC(F)(F)CC1 (stereo partly shown) [Compound 24]	0.1 to 1	> 1
CCn1nccc1C(=O)N[C@H](c1cn2nc(C[C@@H]3C[C@@H](C(F)(F)F)CNC3=O)cnc2n1)[C@H]1CC[C@H](C)CC1 [Compound 25]	0.1 to 1	> 1
CCn1nccc1C(=O)N[C@H](c1cn2nc(C[C@H]3C[C@@H](C(F)(F)F)CNC3=O)cnc2n1)[C@H]1CC[C@H](C)CC1 [Compound 26]	< 0.1	> 1
CCn1nccc1C(=O)N[C@H](c1cn2nc(C[C@H]3C[C@@H](C(F)(F)F)CNC3=O)cnc2n1)C1CCC(F)(F)CC1 [Compound 27]	< 0.1	> 1
CCn1nccc1C(=O)N[C@H](c1cn2nc(C[C@@H]3C[C@@H](C(F)(F)F)CNC3=O)cnc2n1)C1CCC(F)(F)CC1 [Compound 28]	0.1 to 1	> 1
CCn1nccc1C(=O)N[C@H](c1cn2nc(C[C@H]3C[C@@H](C(F)(F)F)CNC3=O)cnc2n1)C(C1CC1)C1CC1 [Compound 29, N—((S)-2,2-dicyclopropyl-1-(2-(((3R,5R)-2-oxo-5-(trifluoromethyl)piperidin-3-yl)methyl)imidazo[1,2-b][1,2,4]triazin-6-yl)ethyl)-1-ethyl-1H-pyrazole-5-carboxamide]	< 0.1	> 1
CCn1nccc1C(=O)N[C@H](c1cn2nc(C[C@H]3C[C@@H](C(F)(F)F)CNC3=O)cnc2n1)[C@H]1CCCC(F)(F)C1 [Compound 30, N—((S)—((S)-3,3-difluorocyclohexyl)(2-(((3R,5R)-2-oxo-5-(trifluoromethyl)piperidin-3-yl)methyl)imidazo[1,2-b][1,2,4]triazin-6-yl)methyl)-1-ethyl-1H-pyrazole-5-carboxamide]	< 0.1	> 1
CC(C)c1nocc1C(=O)N[C@H](c1cn2nc(C[C@H]3C[C@@H](C(F)(F)F)CNC3=O)cnc2n1)C1CCC(F)(F)CC1 [Compound 32]	0.1 to 1	> 1
CC(C)n1nccc1C(=O)N[C@H](c1cn2nc(C[C@H]3C[C@@H](C(F)(F)F)CNC3=O)cnc2n1)C1CCC(F)(F)CC1 [Compound 34]	< 0.1	> 1
CCc1nonc1C(=O)N[C@H](c1cn2nc(C[C@H]3C[C@@H](C(F)(F)F)CNC3=O)cnc2n1)C1CCC(F)(F)CC1 [Compound 35]	0.1 to 1	> 1
Cn1nccc1C(=O)N[C@H](c1cn2nc(C[C@H]3C[C@@H](C(F)(F)F)CNC3=O)cnc2n1)C1CCC(F)(F)CC1 [Compound 36]	0.1 to 1	> 1
CC(C)c1nonc1C(=O)N[C@H](c1cn2nc(C[C@H]3C[C@@H](C(F)(F)F)CNC3=O)cnc2n1)C1CCC(F)(F)CC1 [Compound 37]	< 0.1	> 1
O=C(N[C@H](c1cn2nc(C[C@H]3C[C@@H](C(F)(F)F)CNC3=O)cnc2n1)C1CCC(F)(F)CC1)c1conc1C1CC1 [Compound 38]	0.1 to 1	> 1
O=C(N[C@H](c1cn2nc(C[C@H]3C[C@@H](C(F)(F)F)CNC3=O)cnc2n1)C(C1CC1)C1CC1)c1nonc1C1CC1 [Compound 39, 4-cyclopropyl-N—((S)-2,2-dicyclopropyl-1-(2-(((3R,5R)-2-oxo-5-(trifluoromethyl)piperidin-3-yl)methyl)imidazo[1,2-b][1,2,4]triazin-6-yl)ethyl)-1,2,5-oxadiazole-3-carboxamide]	< 0.1	> 1

SMILES	IC50 [1] [µM]	IC50 [2] [µM]
O=C(N[C@H](c1cn2nc(C[C@H]3C[C@@H](C(F)(F)F)CNC3=O)cnc2n1)C1CCC(F)(F)CC1)c1conc1CCF [Compound 40]	0.1 to 1	> 1
CC(C)n1nccc1C(=O)N[C@H](c1cn2nc(C[C@H]3C[C@H](C(F)(F)F)CNC3=O)cnc2n1)C1CCC(F)(F)CC1 [Compound 41]	0.1 to 1	> 1
O=C(N[C@H](c1cn2nc(C[C@H]3C[C@@H](C(F)(F)F)CNC3=O)cnc2n1)C1CCC(F)(F)CC1)c1conc1C(F)(F)F [Compound 42]	0.1 to 1	> 1
O=C(N[C@H](c1cn2nc(C[C@H]3C[C@@H](C(F)(F)F)CNC3=O)cnc2n1)C1CCC(F)(F)CC1)c1nonc1C1CC1 [Compound 43]	< 0.1	> 1
CCn1nccc1C(=O)N[C@H](c1cn2nc(C[C@H]3C[C@@H](C(F)(F)F)CNC3=O)c(N3CCOCC3)nc2n1)C1CCC(F)(F)CC1 [Compound 46]	< 0.1	0.1 to 1
CCn1nccc1C(=O)N[C@H](c1cn2nc(CC3C[C@@H](C(F)(F)F)CNC3=O)c(N3CCOCC3)nc2n1)C1CCC(F)(F)CC1 (stereo partly shown) [Compound 47]	< 0.1	> 1
O=C(N[C@H](c1cn2nc(C[C@H]3C[C@H](C(F)(F)F)CNC3=O)cnc2n1)C1CCC(F)(F)CC1)c1nonc1C1CC1 [Compound 53]	0.1 to 1	> 1
O=C(N[C@H](c1cn2nc(CC3C[C@@H](C(F)(F)F)CNC3=O)c(N3CCOCC3)nc2n1)C1CCC(F)(F)CC1)c1nonc1C1CC1 (stereo partly shown) [Compound 57]	< 0.1	> 1
CCn1nccc1C(=O)N[C@H](c1cn2nc(CC3C[C@@H](C(F)(F)F)CNC3=O)c(N3CCOCC3)nc2n1)[C@H]1CC[C@H](C)CC1 (stereo partly shown) [Compound 58]	< 0.1	0.1 to 1
CCn1nccc1C(=O)N[C@H](c1cn2nc(CC3C[C@@H](C(F)(F)F)CNC3=O)c(N3CCOCC3)nc2n1)[C@H]1CC[C@H](C)CC1 (stereo partly shown) [Compound 59]	< 0.1	> 1
CC[C@@H](c1ccc(F)cc1)[C@H](NC(=O)c1ccnn1CC)c1cn2nc(C[C@H]3C[C@@H](C(F)(F)F)CNC3=O)cnc2n1 [Compound 60, 1-ethyl-N-((1S,2S)-2-(4-fluorophenyl)-1-(2-(((3R,5R)-2-oxo-5-(trifluoromethyl)piperidin-3-yl)methyl)imidazo[1,2-b][1,2,4]triazin-6-yl)butyl)-1H-pyrazole-5-carboxamide]	< 0.1	> 1
CCn1nccc1C(=O)N[C@H](c1cn2nc(C[C@H]3C[C@@H](C(F)(F)F)CNC3=O)c(C3CCOCC3)nc2n1)[C@H]1CCCC(F)(F)C1 [Compound 66, N—((S)—((S)-3,3-difluorocyclohexyl)(2-(((3R,5R)-2-oxo-5-(trifluoromethyl)piperidin-3-yl)methyl)-3-(tetrahydro-2H-pyran-4-yl)imidazo[1,2-b][1,2,4]triazin-6-yl)methyl)-1-ethyl-11H-pyrazole-5-carboxamide]	< 0.1	< 0.1
CCn1nccc1C(=O)N[C@H](c1cn2nc(C[C@H]3C[C@@H](C(F)(F)F)CNC3=O)c(C3CCOCC3)nc2n1)[C@@H]1CCCC(F)(F)C1 [Compound 67, N—((S)—((R)-3,3-difluorocyclohexyl)(2-(((3R,5R)-2-oxo-5-(trifluoromethyl)piperidin-3-yl)methyl)-3-(tetrahydro-2H-pyran-4-yl)imidazo[1,2-b][1,2,4]triazin-6-yl)methyl)-1-ethyl-1H-pyrazole-5-carboxamide]	< 0.1	< 0.1
CCn1nccc1C(=O)N[C@H](c1cn2nc(C[C@H]3C[C@@H](C(F)(F)F)CNC3=O)c(C3CCOCC3)nc2n1)[C@H]1CC[C@H](C)CC1 [Compound 78, 1-ethyl-N-((1S)-((1r,4S)-4-methylcyclohexyl)(2-(((3R,5R)-2-oxo-5-(trifluoromethyl)piperidin-3-yl)methyl)-3-(tetrahydro-2H-pyran-4-yl)imidazo[1,2-b][1,2,4]triazin-6-yl)methyl)-1H-pyrazole-5-carboxamide]	< 0.1	< 0.1
CCn1nccc1C(=O)N[C@H](c1cn2nc(C[C@H]3C[C@@H](C(F)(F)F)CNC3=O)c(C(C)C)nc2n1)C1CCC(F)(F)CC1 [Compound 87, N-((1S)-(4,4-difluorocyclohexyl)(3-isopropyl-2-(((3R,5R)-2-oxo-5-(trifluoromethyl)piperidin-3-yl)methyl)imidazo[1,2-b][1,2,4]triazin-6-yl)methyl)-1-ethyl-1H-pyrazole-5-carboxamide]	< 0.1	0.1 to 1
CCn1nccc1C(=O)N[C@H](c1cn2nc(C[C@H]3C[C@@H](C(F)(F)F)CNC3=O)c(C(C)C)nc2n1)[C@H]1CC[C@H](C)CC1 [Compound 110, 1-ethyl-N-((1S)-(3-isopropyl-2-(((3R,5R)-2-oxo-5-(trifluoromethyl)piperidin-3-yl)methyl)imidazo[1,2-b][1,2,4]triazin-6-yl)((1r,4S)-4-methylcyclohexyl)methyl)-1H-pyrazole-5-carboxamide]	< 0.1	0.1 to 1
